# Assay results published in patent publication USRE49128E1, “Hydroxyl purine compounds and applications thereof” (GUANGDONG RAYNOVENT BIOTECH CO., LTD., priority 2014, dated 2022).
# What was measured:
# [1] = target: T1, recombinant full-length PDE2A protein (Homo sapiens, UniProt O00408); experiment: Evaluation of PDE2 phosphodiesterase inhibitory activity in vitro (fluorescence polarization, Transcreener AMP2/GMP2); assay type: biochemical; conditions: IC50 classes; substrate 1 μM cGMP; room temperature one hour
# T1 construct: Expression of recombinant full-length PDE2A protein in insect Sf9 cells; GST (N); made in house; host or cells: insect Sf9 cells (baculovirus)
# Protocol: Experimental objective: The substituted Alexa Fluor 633 fluorescent dye on the AMP/GMP antibodies was detected by the fluorescence polarization analysis to determine the concentration of AMP/GMP produced in the reaction system, which was used to calculate the IC50 values of the test compounds against PDE2 phosphodiesterase.
# The measured buffer solution: 10 mM Tris-HCl, pH 7.5, 5 mM MgCl2, 0.01% Brij 35, 1 mM DTT, and 1% DMSO.
# Enzyme: Expression of recombinant full-length PDE2A protein in insect Sf9 cells using N-terminal GST-tag with baculovirus.
# Transcreener® AMP^2/GMP^2 antibody, AMP2/GMP2 AlexaFluor 633 fluorescent dye.
# The enzyme solution was prepared using freshly prepared buffer solution, and then added to the reaction holes, the DMSO solutions of the test compounds were added by the Echo550 non-contact nanoliter acoustic pipetting system, and then pre-incubated at room temperature for 10 minutes, the reaction was initiated by the addition of the substrate (1 μM cGMP), and then reacted at room temperature for one hour. And then the detection system (Transcreener® AMP^2/GMP^2 antibody, AMP2/GMP2 AlexaFluor 633 fluorescent dye) was added, reacted at room temperature for 90 minutes, the fluorescence polarization was detected using Ex/Em 620/688.
# The fluorescence polarization intensity was converted to nM concentration by AMP/GMP standard curve, The relative enzyme activity relative to DMSO blank was calculated, IC50 values and curves were calculated using Prism software packages (GraphPad Software, San Diego Calif., USA).
# [2] = Pharmacokinetic evaluation of compounds in SD rats; assay type: in vivo, Sprague Dawley rats; conditions: male, Sprague-Dawley, rat, plasma, single intravenous injection and oral administration; for bioavailability: read-out: Bioavailability F; for clearance: read-out: Clearance rate; for AUC: read-out: Concentration integration AUC; for half-life: read-out: Half-life T1/2 (converted)
# Protocol: Experimental objective: The pharmacokinetics of test compounds in SD rats.
# Sprague Dawley rats (male, 200-300 g, 7-9 weeks old, Shanghai Slack).
# The pharmacokinetic characteristics of rodents after intravenous and oral administration of the compounds were tested according to the standard protocol, in the experiment, the candidate compound was formulated into a clear solution, and the rats were given single intravenous injection and oral administration. Intravenous and oral solvents are a certain proportion of hydroxypropyl βcyclodextrin aqueous solution or physiological saline solution. Blood samples within 24 hours were collected, centrifuged (3000 g) for 15 minutes, the supernatant were separated to obtain the plasma samples, the protein was precipitated by adding a 4 times volume of acetonitrile solution that containing the internal standard, centrifuged and the supernatant was then centrifuged after adding equal volume of water, then the supernatant was injected, the plasma concentration was quantitatively analyzed by LC-MS/MS analysis, and pharmacokinetics parameters such as peak concentration, peak time, clearance rate, half-life, drug area under the curve, bioavailability etc. are calculated.
# [3] = tested on: TNF-α; experiment: Effect of compounds on TNF-α in LPS-induced blood of rats in vitro (ELISA); assay type: cell-based, Sprague Dawley rats; conditions: compound 100 μM; LPS-induced rat blood, 5 hours; plasma TNF-α by ELISA; read-out: TNF-α inhibition ratio
# Protocol: Experimental objective: Detect the effects of compounds on TNF-α in LPS-induced blood of rats in vitro, evaluate the inhibitory effect of the compounds on TNF-α in LPS-induced blood of rats.
# Sprague Dawley rats (male, 210-260 g, 8-10 weeks old, Shanghai Slack);
# Rat TNF-alpha Quantikine ELISA Kit (R&D, #SRTA00).
# Test compounds solutions with a concentration of 1 mM were prepared, 40 μL of which (the final concentration of the compound was 100 μM) was respectively added to 48-hole cell culture plates. Rats were anesthetized with isoflurane, heart blood was collected (heparin was used to anticoagulation). The blood was added to the 48-hole plates holding the test compounds, 320 μL per hole. The 48-hole plates were placed in a cell incubator and incubated for 30 minutes, 40 μL LPS solution was added (100 μg/mL), mixed and placed in the incubator and continued to incubate. the 48-hole plates was taken out after 5 hours, the blood samples were transferred to 1.5 mL centrifuge tubes, centrifuged in a centrifuge (4,500 rpm, 4° C., 5 minutes), the upper plasma were separated, frozen after storage and stored in a refrigerator at −80° C. The levels of TNF-α in plasma samples were measured using the R & D ELISA kit according to the kit instructions the nest day.
# T1 sequence (O00408 whole entry, species assumed): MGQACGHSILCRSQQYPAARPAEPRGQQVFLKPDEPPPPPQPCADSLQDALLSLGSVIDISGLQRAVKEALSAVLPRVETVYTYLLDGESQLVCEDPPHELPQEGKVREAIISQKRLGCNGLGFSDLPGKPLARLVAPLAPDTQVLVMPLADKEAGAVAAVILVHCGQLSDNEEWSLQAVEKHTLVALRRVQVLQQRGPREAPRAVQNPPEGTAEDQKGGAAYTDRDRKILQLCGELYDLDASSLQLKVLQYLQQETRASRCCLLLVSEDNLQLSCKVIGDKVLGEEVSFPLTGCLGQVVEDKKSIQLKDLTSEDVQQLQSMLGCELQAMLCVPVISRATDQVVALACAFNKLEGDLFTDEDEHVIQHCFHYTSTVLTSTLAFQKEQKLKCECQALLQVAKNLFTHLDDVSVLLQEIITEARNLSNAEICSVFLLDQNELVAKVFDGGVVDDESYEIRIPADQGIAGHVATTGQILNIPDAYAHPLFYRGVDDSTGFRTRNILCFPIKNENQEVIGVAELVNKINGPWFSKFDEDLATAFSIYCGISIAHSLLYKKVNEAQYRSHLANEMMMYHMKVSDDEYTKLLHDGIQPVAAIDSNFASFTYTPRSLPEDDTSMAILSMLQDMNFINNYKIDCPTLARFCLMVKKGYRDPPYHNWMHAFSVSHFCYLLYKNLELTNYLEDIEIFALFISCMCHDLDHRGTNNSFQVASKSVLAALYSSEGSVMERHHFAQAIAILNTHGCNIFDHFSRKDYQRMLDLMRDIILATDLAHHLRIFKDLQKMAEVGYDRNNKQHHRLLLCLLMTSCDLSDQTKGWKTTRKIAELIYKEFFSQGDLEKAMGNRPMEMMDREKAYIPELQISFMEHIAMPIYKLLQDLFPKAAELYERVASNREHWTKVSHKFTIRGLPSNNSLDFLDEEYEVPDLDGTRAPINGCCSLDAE
Compound,IC50 [1],bioavailability [2],clearance [2],AUC [2],half-life [2],inhibition at 100 µM [3]
"Cn1c(=O)n(CC2CCC(O)(C(F)(F)F)CC2)c(=O)c2c1ncn2CC(F)(F)F (single isomer, unassigned) [Embodiment 45 isomer 2, 1-((4-Hydroxy-4-(trifluoromethyl)cyclohexyl)methyl)-3-methyl-7-(2,2,2-trifluoroethyl)-1H-purine-2,6(3H,7H)-dione]",1 to 10 µM,17.1%,58.4 mL/min/kg,1.29 µM·h,6.19 h,
"Cn1c(=O)n(CC2CCC(C)(O)CC2)c(=O)c2c1ncn2CC1CC1 (single isomer, unassigned) [Embodiment 51 isomer 2]",1 to 10 µM,47.9%,54.4 mL/min/kg,4.39 µM·h,0.793 h,80 to 100%
"Cn1cnc2c1c(=O)n(CCCCC(C)(O)C(F)(F)F)c(=O)n2C (centres unmarked) [Embodiment 1, 3,7-Dimethyl-1-(6,6,6-trifluoro-5-hydroxy-5-methylhexyl)-1H-purine-2,6(3H,7H)-dione]",10 to 50 µM,59.7%,54.7 mL/min/kg,1.91 µM·h,0.659 h,60 to 80%
"C[C@H](O)CNCCn1c(=O)c2c(ncn2C)n(C)c1=O [Embodiment 40, (S)-1-(2-((2-Hydroxypropyl)amino)ethyl)-3,7-dimethyl-1H-purine-2,6(3H,7H)-dione]",,,,,,60 to 80%
"Cn1cnc2c1c(=O)n(CC1CCC(O)(C(F)(F)F)CC1)c(=O)n2C (single isomer, unassigned) [Embodiment 12 isomer 1]",10 to 50 µM,,,,,60 to 80%
"CCC(O)(CC)CCCCn1c(=O)c2c(ncn2C)n(C)c1=O [Embodiment 2, 1-(5-Ethyl-5-hydroxyheptyl)-3,7-dimethyl-1H-purine-2,6(3H,7H)-dione]",1 to 10 µM,34.2%,63.6 mL/min/kg,0.902 µM·h,0.481 h,
"Cn1cnc2c1c(=O)n(CC1CCC(O)(C(F)(F)F)CC1)c(=O)n2C (centres unmarked) [Embodiment 11, 1-((4-Hydroxy-4-(trifluoromethyl)cyclohexyl)methyl)-3,7-dimethyl-1H-purine-2,6(3H, 7H)-dione]",10 to 50 µM,,,,,60 to 80%
"Cn1cnc2c1c(=O)n(CC1CCC(O)(C(F)(F)F)CC1)c(=O)n2C (single isomer, unassigned) [Embodiment 12 isomer 2]",1 to 10 µM,34.1%,41 mL/min/kg,3.85 µM·h,1.6 h,

# Continued, in another order:
IC50 [1],bioavailability [2],clearance [2],AUC [2],half-life [2],Compound,inhibition at 100 µM [3]
1 to 10 µM,33.8%,13.6 mL/min/kg,11.4 µM·h,2.96 h,Cn1cnc2c1c(=O)n(Cc1ccc(C(C)(O)C(F)(F)F)cc1)c(=O)n2C (centres unmarked) [Embodiment 27],60 to 80%
1 to 10 µM,,,,,"Cn1c(=O)n(CC2CCC(O)(C(F)(F)F)CC2)c(=O)c2c1ncn2CC(F)(F)F (centres unmarked) [Embodiment 44, 1-((4-Hydroxy-4-(trifluoromethyl)cyclohexyl)methyl)-3-methyl-7-(2,2,2-trifluoroethyl)-1H-purine-2,6(3H,7H)-dione]",80 to 100%
< 1 µM,42.6%,71.6 mL/min/kg,2.49 µM·h,0.56 h,"Cn1c(=O)n(CC2CCC(O)(C(F)(F)F)CC2)c(=O)c2c1ncn2CC1CC1 (single isomer, unassigned) [Embodiment 50 isomer 2, 7-(Cyclopropylmethyl)-1-((4-hydroxy-4-(trifluoromethyl)cyclohexyl)methyl)-3-methyl-1H-purine-2,6(3H,7H)-dione]",80 to 100%
< 1 µM,95.8%,21.5 mL/min/kg,17.8 µM·h,2.18 h,"Cn1c(=O)n(Cc2ccc(C(C)(O)C(F)(F)F)nc2)c(=O)c2c1ncn2CC1CC1 (centres unmarked) [Embodiment 55, 7-(Cyclopropylmethyl)-3-methyl-1-((6-(1,1,1-trifluoro-2-hydroxypropan-2-yl)pyridin-3-yl)methyl)-1H-purine-2,6-(3H,7H)-dione]",80 to 100%
1 to 10 µM,,,,,"Cn1c(=O)n(CC2CCC(O)(C(F)(F)F)CC2)c(=O)c2c1ncn2CC1CC1 (centres unmarked) [Embodiment 49, 7-(Cyclopropylmethyl)-1-((4-hydroxy-4-(trifluoromethyl)cyclohexyl)methyl)-3-methyl-1H-purine-2,6(3H,7H)-dione]",80 to 100%
1 to 10 µM,149%,12.9 mL/min/kg,51.2 µM·h,2.27 h,Cn1cnc2c1c(=O)n(Cc1ccc(C(C)(O)C(F)(F)F)nc1)c(=O)n2C (centres unmarked) [Embodiment 28],
